# Data as given in ChEMBL document CHEMBL5236572, “Bioactive Aurones, Indanones, and Other Hemiindigoid Scaffolds: Medicinal Chemistry and Photopharmacology Perspectives” (J Med Chem, 2022).
# pEC50, pIC50, pKi: −log10 of the molar value.
# Tests used:
# PC-3 = experiment: Antiproliferative activity against doxorubicin resistant human PC-3 cells assessed as inhibition of cell proliferation by Beckman Coulter analysis; format: functional, cell-based
# Pseudomonas aeruginosa [1] = experiment: Antimicrobial activity against Pseudomonas aeruginosa MTCC 1688 assessed as bacterial growth inhibition by broth microdilution method; format: functional
# Staphylococcus aureus [2] = experiment: Antimicrobial activity against Staphylococcus aureus MTCC96 assessed as bacterial growth inhibition incubated for 24 hrs by well diffusion method; format: functional
# Escherichia coli = experiment: Antimicrobial activity against Escherichia coli MTCC43 assessed as bacterial growth inhibition incubated for 24 hrs by well diffusion method; format: functional
# Proteus vulgaris = experiment: Antimicrobial activity against Proteus vulgaris assessed as bacterial growth inhibition incubated for 24 hrs by well diffusion method; format: functional
# Aspergillus flavus [3] = experiment: Antifungal activity against Aspergillus flavus NRRL-3357 assessed as reduction in fungal growth by well diffusion method; format: functional
# Bacillus subtilis = experiment: Antimicrobial activity against Bacillus subtilis MTCC 121 assessed as bacterial growth inhibition incubated for 24 hrs by well diffusion method; format: functional
# Candida albicans = experiment: Antifungal activity against Candida albicans assessed as reduction in fungal growth by well diffusion method; format: functional
# Schistosoma mansoni = experiment: Antischistosomal activity against adult stage of Schistosoma mansoni BH assessed assessed as inhibition of parasite death at 25 uM incubated for 24 hrs by light microscopy; format: functional
# [4] = Cytotoxicity against mouse Peritoneal macrophage incubated for 24 hrs by MTT assay; format: toxicity, cell-based; details: peritoneal macrophages
# [5] = Selectivity index, ratio of IC50 for cytotoxicity against PMA differentiated human THP-1 cells to IC50 for antileishmanial activity against luciferase expressing axenic amastigote stage of Leishmania infantum MOM/MA671/TMAP263 infected in PMA differentiated human THP-1 macrophage cells; format: toxicity, cell-based; details: PMA-differentiated THP-1 cells, read-out: Ratio IC50
# Leishmania infantum = experiment: Antileishmanial activity against luciferase expressing […] amastigote stage of Leishmania infantum MOM/MA671/TMAP263 infected in PMA differentiated human THP-1 macrophage cells assessed as reduction in parasite growth incubated for 72 hrs by luminescence analysis; format: functional, organism-based; details: MOM/MA671/TMAP263, THP-1, 72 h
# [6] = system: Mycobacterium tuberculosis; experiment: Antimicrobial activity against Mycobacterium tuberculosis H37Rv assessed as reduction in bacterial growth incubated for 7 days by broth micro dilution method; format: functional; details: 168 h, time 7 day
# [7] = Cytotoxicity against human HEK293T cells; format: toxicity, cell-based, HEK-293T
# [8] = target: T1, Amine oxidase [flavin-containing] B (Homo sapiens, UniProt P27338); experiment: Inhibition of recombinant human MAO-B using p-tyramine as substrate by Amplex-Red MAO assay
# T1 sequence (P27338 whole entry): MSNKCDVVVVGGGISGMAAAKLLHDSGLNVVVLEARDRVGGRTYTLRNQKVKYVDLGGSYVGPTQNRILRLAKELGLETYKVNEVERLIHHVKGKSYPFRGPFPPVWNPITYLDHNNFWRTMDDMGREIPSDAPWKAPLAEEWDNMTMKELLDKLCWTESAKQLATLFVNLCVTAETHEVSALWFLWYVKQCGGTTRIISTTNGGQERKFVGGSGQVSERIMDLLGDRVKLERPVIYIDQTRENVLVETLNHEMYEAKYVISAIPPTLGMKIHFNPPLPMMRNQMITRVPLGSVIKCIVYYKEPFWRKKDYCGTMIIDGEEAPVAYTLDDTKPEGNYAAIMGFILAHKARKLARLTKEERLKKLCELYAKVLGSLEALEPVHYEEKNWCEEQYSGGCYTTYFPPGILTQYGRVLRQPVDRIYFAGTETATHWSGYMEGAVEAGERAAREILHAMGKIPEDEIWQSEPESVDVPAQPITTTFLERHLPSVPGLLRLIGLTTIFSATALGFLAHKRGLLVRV
# [9] = target: T2, Amine oxidase [flavin-containing] A (Homo sapiens, UniProt P21397); experiment: Inhibition of recombinant human MAO-A using p-tyramine as substrate by Amplex-Red MAO assay
# T2 sequence (P21397 whole entry): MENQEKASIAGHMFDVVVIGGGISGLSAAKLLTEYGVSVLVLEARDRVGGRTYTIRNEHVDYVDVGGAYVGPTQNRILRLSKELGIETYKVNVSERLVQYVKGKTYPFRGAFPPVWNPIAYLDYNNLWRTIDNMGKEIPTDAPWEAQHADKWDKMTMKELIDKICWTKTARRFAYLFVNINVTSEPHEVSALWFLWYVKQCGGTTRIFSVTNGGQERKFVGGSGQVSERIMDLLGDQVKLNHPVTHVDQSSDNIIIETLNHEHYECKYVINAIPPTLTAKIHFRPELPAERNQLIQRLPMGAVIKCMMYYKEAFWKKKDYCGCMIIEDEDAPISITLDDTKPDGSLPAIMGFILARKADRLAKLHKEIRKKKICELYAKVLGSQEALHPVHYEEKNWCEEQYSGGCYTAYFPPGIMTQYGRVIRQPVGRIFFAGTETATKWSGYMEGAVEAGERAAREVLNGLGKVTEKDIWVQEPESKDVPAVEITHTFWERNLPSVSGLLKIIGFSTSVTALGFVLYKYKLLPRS
# [10] = Inhibition of equine serum BuChE using butyrylthiocholine iodide as substrate preincubated for 15 mins followed by substrate addition and measured after 2 mins by DTNB reagent based Ellman's method
# [11] = target: T3, Amyloid-beta precursor protein (Homo sapiens, UniProt P05067); experiment: Inhibition of self-induced amyloid beta (1 to 42) (unknown origin) disaggregation by ThT-based fluorometric assay
# [12] = target: T3, Amyloid-beta precursor protein; experiment: Inhibition of amyloid beta (1 to 42) (unknown origin) self aggregation by ThT-based fluorometric assay
# [13] = target: T1, Amine oxidase [flavin-containing] B; experiment: Inhibition of recombinant human MAO-B
# [14] = Inhibition of equine serum BuChE using butyrylthiocholine iodide as substrate preincubated for 5 mins followed by substrate addition by spectrophotometric Ellman's method
# [15] = Selectivity index, ratio of IC50 for inhibition of electric eel AChE to IC50 for inhibition of equine serum BuChE
# Acetylcholinesterase = Acetylcholinesterase (Electrophorus electricus, UniProt O42275); experiment: Inhibition of electric eel AChE using acetylthiocholine iodide as substrate preincubated for 5 mins followed by substrate addition by spectrophotometric Ellman's method
# Aspergillus niger [16] = experiment: Antifungal activity against Aspergillus niger assessed as reduction in fungal growth incubated for 24 hrs by disk diffusion assay; format: functional
# Mucor mucedo = experiment: Antifungal activity against Mucor mucedo assessed as reduction in fungal growth incubated for 24 hrs by disk diffusion assay; format: functional
# Rhizopus arrhizus = experiment: Antifungal activity against Rhizopus oryzae assessed as reduction in fungal growth incubated for 24 hrs by disk diffusion assay; format: functional
# Aspergillus flavus [17] = experiment: Antifungal activity against Aspergillus flavus assessed as reduction in fungal growth incubated for 24 hrs by disk diffusion assay; format: functional
# [18] = Cytotoxicity against human HeLa cells assessed as reduction in cell viability; format: toxicity, cell-based
# [19] = system: Trypanosoma brucei brucei; experiment: Antitrypanosomal activity against Trypanosoma brucei brucei assessed as reduction in parasite viability by resorufin based fluorescence assay; format: functional, organism-based
# Aspergillus flavus [20] = experiment: Antifungal activity against Aspergillus flavus assessed as reduction in fungal growth; format: functional
# Pseudomonas aeruginosa [21] = experiment: Antimicrobial activity against Pseudomonas aeruginosa assessed as bacterial growth inhibition; format: functional
# Aspergillus niger [22] = experiment: Antifungal activity against Aspergillus niger assessed as reduction in fungal growth; format: functional
# Staphylococcus aureus [23] = experiment: Antimicrobial activity against Staphylococcus aureus assessed as bacterial growth inhibition; format: functional
# T3 sequence (P05067 whole entry): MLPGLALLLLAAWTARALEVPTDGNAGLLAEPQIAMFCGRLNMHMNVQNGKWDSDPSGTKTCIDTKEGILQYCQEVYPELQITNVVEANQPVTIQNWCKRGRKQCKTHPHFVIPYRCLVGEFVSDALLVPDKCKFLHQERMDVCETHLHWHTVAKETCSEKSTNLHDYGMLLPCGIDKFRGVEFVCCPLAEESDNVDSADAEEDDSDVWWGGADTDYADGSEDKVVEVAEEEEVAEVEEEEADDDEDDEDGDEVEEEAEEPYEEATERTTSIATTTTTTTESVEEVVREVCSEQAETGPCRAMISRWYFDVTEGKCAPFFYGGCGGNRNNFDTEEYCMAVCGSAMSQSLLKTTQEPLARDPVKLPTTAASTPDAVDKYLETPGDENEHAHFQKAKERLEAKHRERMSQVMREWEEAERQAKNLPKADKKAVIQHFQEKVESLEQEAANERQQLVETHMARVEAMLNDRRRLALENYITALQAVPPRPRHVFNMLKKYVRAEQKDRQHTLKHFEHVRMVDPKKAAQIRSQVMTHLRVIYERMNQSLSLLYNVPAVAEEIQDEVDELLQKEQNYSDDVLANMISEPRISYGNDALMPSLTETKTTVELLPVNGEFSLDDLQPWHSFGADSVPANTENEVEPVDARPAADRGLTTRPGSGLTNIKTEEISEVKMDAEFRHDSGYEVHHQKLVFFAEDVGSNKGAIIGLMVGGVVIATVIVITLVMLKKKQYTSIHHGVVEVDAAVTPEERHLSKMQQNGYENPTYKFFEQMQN
# Acetylcholinesterase, sequence (O42275 whole entry, the tested form may be a part): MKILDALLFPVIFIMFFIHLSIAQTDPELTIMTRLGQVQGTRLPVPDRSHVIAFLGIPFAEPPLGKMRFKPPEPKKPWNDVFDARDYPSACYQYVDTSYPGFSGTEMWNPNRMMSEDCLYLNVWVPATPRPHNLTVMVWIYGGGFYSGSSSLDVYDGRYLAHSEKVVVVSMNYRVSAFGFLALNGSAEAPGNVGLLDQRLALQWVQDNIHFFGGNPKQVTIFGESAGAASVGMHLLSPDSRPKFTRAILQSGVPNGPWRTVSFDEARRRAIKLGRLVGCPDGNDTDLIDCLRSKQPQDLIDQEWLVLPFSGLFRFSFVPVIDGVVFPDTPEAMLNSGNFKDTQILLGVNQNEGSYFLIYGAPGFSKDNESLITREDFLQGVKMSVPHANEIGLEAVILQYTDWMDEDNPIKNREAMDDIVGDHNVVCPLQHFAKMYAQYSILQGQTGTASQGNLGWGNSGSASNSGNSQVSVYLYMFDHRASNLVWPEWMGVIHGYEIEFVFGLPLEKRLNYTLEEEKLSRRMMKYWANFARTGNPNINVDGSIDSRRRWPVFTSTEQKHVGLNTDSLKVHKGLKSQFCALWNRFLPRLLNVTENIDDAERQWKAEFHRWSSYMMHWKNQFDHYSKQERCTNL
compound,measurement,setting,value
COc1ccc(/C=C2\Oc3c(ccc(OC(C)=O)c3COC(C)=O)C2=O)cc1OC,pIC50,PC-3,6.13
C=CCn1c(=O)c(/C=C2\Oc3cc(O)cc(O)c3C2=O)cc2cc(C)ccc21,MIC,Pseudomonas aeruginosa [1],33 µM
O=C1/C(=C/c2ccc(Br)cc2)Oc2c1ccc1c2C=CCO1,MIC,Staphylococcus aureus [2],4.4 µM
same,MIC,Escherichia coli,4.4 µM
same,MIC,Proteus vulgaris,4.4 µM
same,MIC,Aspergillus flavus [3],18 µM
same,MIC,Bacillus subtilis,4.4 µM
same,MIC,Candida albicans,18 µM
O=C1/C(=C/c2cccs2)Oc2ccccc21,inhibition at 25 µM,Schistosoma mansoni,50%
same,CC50 at 24 h,[4],> 150000 nM
COc1cc(OC)c2c(c1)O/C(=C\c1ccccc1OC)C2=O,selectivity ratio,[5],57.5
same,pEC50,Leishmania infantum,5.89
CC(=O)N1/C(=C\c2ccc(-c3cnc4ccccc4c3)cc2)C(=O)c2ccccc21,MIC90,[6],0.65 µM
same,MIC99,[6],0.74 µM
same,CC50,[7],19 nM
O=C1/C(=C/c2c3ccccc3cc3ccccc23)Oc2ccccc21,pKi,[8],6.70
same,pKi,[9],6.96
COc1cc2c(cc1OC)C(=O)/C(=C/c1cc[n+](Cc3ccccc3F)cc1)O2,pIC50,[10],5.79
COc1cc2c(cc1OC)C(=O)/C(=C/c1ccc([N+](=O)[O-])cc1)C2,pIC50,[11],5.10
same,pIC50,[12],5.74
same,pIC50,[13],7.52
COc1ccc(NC(=O)Oc2cccc(/C=C3\Cc4cc(OC)c(OC)cc4C3=O)c2)cc1,pIC50,[14],6.51
same,Ratio IC50,[15],70
same,pIC50,Acetylcholinesterase,4.68
O=C1/C(=C/c2ccncc2)Cc2ccc3c(c21)CCO3,MIC,Aspergillus niger [16],60 µM
same,MIC,Mucor mucedo,60 µM
same,MIC,Rhizopus arrhizus,60 µM
same,MIC,Aspergillus flavus [17],60 µM
O=C1/C(=C/c2cccnc2Cl)Cc2ccccc21,CC50,[18],> 100000 nM
same,pIC50,[19],6.26
Cc1ccc2c(c1)C(=O)/C(=C/c1coc3ccc(C)cc3c1=O)O2,MIC,Aspergillus flavus [20],14 µM
same,MIC,Pseudomonas aeruginosa [21],1.6 µM
same,MIC,Aspergillus niger [22],14 µM
same,MIC,Staphylococcus aureus [23],1.6 µM
